# Measured values: patent US8470889B2 (TRT Pharma Inc., priority 2008, dated 2013)
# Like-named read-outs stand apart in the source and are kept apart here.
# Key:
# LNCaP cells [1] = experiment: MTT cell growth inhibition, LNCaP;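 further: MTT formazan absorbance at 600 nm read after 72 h of compound exposure, IC50 fitted by nonlinear regression of dose-response curves, samples run in triplicate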
# PC-3 cells [2] = experiment: MTT cell growth inhibition, PC-3
# Protocol: (§1) MDA PCa 2b was seeded at the same density in medium BRFF-HPC1 (Athena Enzyme Systems, Baltimore, Md., USA) supplemented with 20% FBS. After overnight incubation, the medium was changed to a fresh medium containing different concentrations of test compounds diluted from stock DMSO solution. The final concentration of DMSO is 0.5%. After 72 h of incubation with test compounds, 20 μL of 3-(4,5-dimethyl thiazol-2-yl)-2,5-diphenyltetrazolium bromide (MTT) solution (5 mg/mL in PBS) were added to each well and incubated further for 2 h. Next, the supernatant was aspirated and the MTT formazan formed by metabolically viable cells was dissolved in 100 μL of isopropanol. The plates were mixed for 30 min, and the absorbance was measured at 600 nm on a plate reader (FLUOstar OPTIMA, BMG LabTech). All samples were in triplicate. The IC50 values were determined from dose-response curves by nonlinear regression using PRISM v5.00 (GraphPad Software Inc, La Jolla, Calif., USA).
# (§2) The in vitro cytotoxicity of 1-20 were evaluated by MTT assays in a panel of prostate cancer cell lines, including LNCaP, MDA PCa 2b, 22Rv1, C4-2B and PC-3.
# C4-2B cells = experiment: MTT cell growth inhibition, C4-2B;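 further: cells treated with a dilution series for 72 h, then MTT added and absorbance read at 600 nm, IC50 fitted from dose-response curves by nonlinear regression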
# 22Rv1 cells [3] = experiment: MTT cell growth inhibition, 22Rv1; conditions: MTT
# PC-3 cells [4] = tested on: PC-3 cells
# Protocol: as §1, §2
# LNCaP cells [5] = tested on: LNCaP cells;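 further: MTT formazan absorbance at 600 nm read after 72 h of compound exposure, IC50 fitted by nonlinear regression of dose-response curves, samples run in triplicate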
# 22Rv1 cells [6] = tested on: 22Rv1 cells
# [7] = read-out: Cellular IC50 (μM) LNCaP, Table 9
# [8] = read-out: Cellular IC50 (μM) PC-3, Table 9
# [9] = read-out: Cellular IC50 (μM) C4-2B, Table 9
# [10] = read-out: Cellular IC50 (μM) 22Rv1, Table 9
# [11] = read-out: Cellular IC50 (μM) LNCaP, Table 8
# [12] = read-out: Cellular IC50 (μM) PC3, Table 8
# [13] = read-out: Cellular IC50 (μM) C4-2B, Table 8
# [14] = read-out: Cellular IC50 (μM) 22Rv1, Table 8
# [15] = read-out: IC50 (μM) LNCaP, Table 1, 72 h
# [16] = read-out: IC50 (μM) PC-3, Table 1, 72 h, maximum tested concentration 50 μM
# [17] = read-out: IC50 (μM) C4-2B, Table 1, 72 h
# [18] = read-out: IC50 (μM) 22Rv1, Table 1, 72 h
smiles,measurement,setting,value
CC1(C)CCC(O)C=C1/C=C/C(=O)/C=C/c1c[nH]c2ccc(Cl)cc12 (centres unmarked) [Compound B84],IC50,LNCaP cells [1]; [7],17.8 µM
same,IC50,PC-3 cells [2]; [8],24.5 µM
same,IC50,C4-2B cells; [9],18.2 µM
same,IC50,22Rv1 cells [3]; [10],14.3 µM
CC1=C(/C=C/C(=O)/C=C/c2cccc(F)c2)C(C)(C)CCC1 [Compound B9],IC50,LNCaP cells [1]; read-out: IC50 in LNCaP cells,12.9 µM
same,IC50,PC-3 cells [4],18.7 µM
CC1=C(/C=C/C(=O)/C=C/c2ccc(C(F)(F)F)cc2F)C(C)(C)CCC1O (racemic) [Compound B35],IC50,PC-3 cells [4],4.6 µM
same,IC50,LNCaP cells [5],2.6 µM
same,IC50,22Rv1 cells [6],3.8 µM
CC1=C(/C=C/C(=O)/C=C/c2ccc(-c3cncnc3)cc2)C(C)(C)CCC1O (centres unmarked) [Compound B58],IC50,LNCaP cells [1]; [11],1.5 µM
same,IC50,PC-3 cells [2]; [12],4.3 µM
same,IC50,C4-2B cells; [13],2.1 µM
same,IC50,22Rv1 cells [3]; [14],3.8 µM
COc1cc(/C=C/C(O)=C/C(=O)/C=C/C2=C(C)CCCC2(C)C)ccc1O [Compound 1],IC50,LNCaP cells [1]; [15],20.6 µM
same,IC50,PC-3 cells [2]; [16],15.8 µM
same,IC50,C4-2B cells; [17],44.3 µM
same,IC50,22Rv1 cells [3]; [18],10.6 µM
COc1cc(/C=C/C(=O)/C=C/C2=C(C)C(O)CCC2(C)C)c(OCc2ccccc2)cc1OC (centres unmarked) [Compound B75],IC50,LNCaP cells [1]; [11],16.7 µM
same,IC50,PC-3 cells [2]; [12],25.4 µM
same,IC50,C4-2B cells; [13],23.3 µM
same,IC50,22Rv1 cells [3]; [14],19.2 µM
CC1=C(/C=C/C(=O)/C=C/c2ccc(OC(F)(F)C(F)F)cc2)C(C)(C)CCC1O (centres unmarked) [Compound B55],IC50,LNCaP cells [1]; [11],5.4 µM
same,IC50,PC-3 cells [2]; [12],12.3 µM
same,IC50,C4-2B cells; [13],4.6 µM
same,IC50,22Rv1 cells [3]; [14],7.7 µM
CC1=C(/C=C/C(=O)/C=C/c2cccc([N+](=O)[O-])c2)C(C)(C)CCC1 [Compound B11],IC50,PC-3 cells [4],10 µM
same,IC50,LNCaP cells [5],2.7 µM
COc1ccc(C=CC(=O)C(=Cc2ccc(OC)c(OC)c2)C(=O)C=CC2=C(C)CCCC2(C)C)cc1OC [Compound 12],IC50,"LNCaP cells [1]; read-out: Cellular IC50 (μM) LNCaP, Table 2, 72 h",15.9 µM
same,IC50,"PC-3 cells [2]; read-out: Cellular IC50 (μM) PC-3, Table 2, 72 h, max tested 50 μM (β-ionone 150 μM)",34.3 µM
same,IC50,"C4-2B cells; read-out: Cellular IC50 (μM) C4-2B, Table 2, 72 h",54.4 µM
same,IC50,"22Rv1 cells [3]; read-out: Cellular IC50 (μM) 22Rv1, Table 2, 72 h",49.7 µM
CC1=C(/C=C/C(=O)/C=C/c2cc(C(F)(F)F)cc(C(F)(F)F)c2)C(C)(C)CCC1 [Compound B7],IC50,PC-3 cells [4],7.2 µM
same,IC50,LNCaP cells [5],8.7 µM
CC1(C)CCC(O)C=C1/C=C/C(=O)/C=C/c1ccc2c(c1)OCCO2 (centres unmarked) [Compound B78],IC50,LNCaP cells [1]; [7],10.8 µM
same,IC50,PC-3 cells [2]; [8],23.2 µM
same,IC50,C4-2B cells; [9],10.3 µM
same,IC50,22Rv1 cells [3]; [10],19.3 µM
CC1(C)CCC(O)C=C1/C=C/C(=O)/C=C/c1cccc2cc[nH]c12 (centres unmarked) [Compound B90],IC50,LNCaP cells [1]; [7],1.4 µM
same,IC50,PC-3 cells [2]; [8],2.1 µM
same,IC50,C4-2B cells; [9],1.7 µM
same,IC50,22Rv1 cells [3]; [10],2.1 µM
CCOc1ccc(/C=C/C(=O)/C=C/C2=C(C)CCCC2(C)C)cc1OCC [Compound B4],IC50,PC-3 cells [4],> 50 µM
same,IC50,LNCaP cells [5],8.2 µM
CC1=C(/C=C/C(=O)/C=C/c2cccc(C(F)(F)F)c2)C(C)(C)CCC1 [Compound B5],IC50,LNCaP cells [1]; read-out: IC50 in LNCaP cells,2.8 µM
same,IC50,PC-3 cells [4],7.7 µM
CC1=C(/C=C/C(=O)/C=C/c2ccc(N3CCCCC3)cc2)C(C)(C)CCC1O (centres unmarked) [Compound B59],IC50,LNCaP cells [1]; [11],17.8 µM
same,IC50,PC-3 cells [2]; [12],22.5 µM
same,IC50,C4-2B cells; [13],19.7 µM
same,IC50,22Rv1 cells [3]; [14],31.2 µM
CC1=C(/C=C/C(=O)/C=C/c2cccc(OCc3ccccc3)c2)C(C)(C)CCC1O (centres unmarked) [Compound B49],IC50,LNCaP cells [1]; [11],5 µM
same,IC50,PC-3 cells [2]; [12],8 µM
same,IC50,C4-2B cells; [13],2.6 µM
same,IC50,22Rv1 cells [3]; [14],5.4 µM
Cc1cccc2c(/C=C/C(=O)/C=C/C3=CC(O)CCC3(C)C)c[nH]c12 (centres unmarked) [Compound B86],IC50,LNCaP cells [1]; [7],2.6 µM
same,IC50,PC-3 cells [2]; [8],6.4 µM
same,IC50,C4-2B cells; [9],3.6 µM
same,IC50,22Rv1 cells [3]; [10],5.3 µM
CC1=C(/C=C/C(=O)/C=C/c2ccc(F)cc2F)C(C)(C)CCC1O (centres unmarked) [Compound B67],IC50,LNCaP cells [1]; [11],4.3 µM
same,IC50,PC-3 cells [2]; [12],7.5 µM
same,IC50,C4-2B cells; [13],2.1 µM
same,IC50,22Rv1 cells [3]; [14],4.8 µM
COc1cc(OC)c(/C=C/C(=O)/C=C/C2=C(C)C(O)CCC2(C)C)c(OC)c1 (centres unmarked) [Compound B74],IC50,LNCaP cells [1]; [11],15.5 µM
same,IC50,PC-3 cells [2]; [12],> 25 µM
same,IC50,C4-2B cells; [13],11.6 µM
same,IC50,22Rv1 cells [3]; [14],21 µM
CCOc1ccc(/C=C/C(=O)/C=C/C2=C(C)C(O)CCC2(C)C)cc1OCC (centres unmarked) [Compound B71],IC50,LNCaP cells [1]; [11],5.5 µM
same,IC50,PC-3 cells [2]; [12],36.1 µM
same,IC50,C4-2B cells; [13],10.5 µM
same,IC50,22Rv1 cells [3]; [14],8.6 µM
COc1cc(/C=C/C(=O)/C=C/C2=C(C)C(O)CCC2(C)C)cc(OC)c1OC (centres unmarked) [Compound B72],IC50,LNCaP cells [1]; [11],1.8 µM
same,IC50,PC-3 cells [2]; [12],4.9 µM
same,IC50,C4-2B cells; [13],1.7 µM
same,IC50,22Rv1 cells [3]; [14],3 µM
CC1=C(/C=C/C(=O)/C=C/c2ccc(C)cc2)C(C)(C)CCC1O (centres unmarked) [Compound B51],IC50,LNCaP cells [1]; [11],11.5 µM
same,IC50,PC-3 cells [2]; [12],18.6 µM
same,IC50,C4-2B cells; [13],5.9 µM
same,IC50,22Rv1 cells [3]; [14],12.3 µM
COc1cc(/C=C/C(O)=C/C(=O)/C=C/C2=C(C)CCCC2(C)C)cc(OC)c1O [Compound 6],IC50,LNCaP cells [1]; [15],6.2 µM
same,IC50,PC-3 cells [2]; [16],26.7 µM
same,IC50,C4-2B cells; [17],9.8 µM
same,IC50,22Rv1 cells [3]; [18],12.2 µM
CC1(C)CCC(O)C=C1/C=C/C(=O)/C=C/c1c(-c2ccccc2)[nH]c2ccccc12 (centres unmarked) [Compound B87],IC50,LNCaP cells [1]; [7],3.2 µM
same,IC50,PC-3 cells [2]; [8],13.7 µM
same,IC50,C4-2B cells; [9],2.2 µM
same,IC50,22Rv1 cells [3]; [10],12.6 µM
CC1(C)CCC(O)C=C1/C=C/C(=O)/C=C/c1ccc2[nH]ccc2c1 (centres unmarked) [Compound B89],IC50,LNCaP cells [1]; [7],1.5 µM
same,IC50,PC-3 cells [2]; [8],3.1 µM
same,IC50,C4-2B cells; [9],1.6 µM
same,IC50,22Rv1 cells [3]; [10],2.3 µM
